Reference: patent US7202219B1, “Use of D-tagatose as a prebiotic food component” (priority 1998, dated 2007)

How the values were obtained:
[1] = test system: human faecal incubations; details: cited from earlier work; for proportion of butyrate on fermentation: human faecal in vitro system (Mortensen et al. 1988)
[2] = oral; cited from earlier work
[3] = test system: human faeces; assay: In vitro fermentation of tagatose by incubation of human faeces (Example 4); type: cell-based
Procedure: (§1) In this study 16 human volunteers deliver a faeces sample before any intake of D-tagatose (unadapted) and another faeces sample after 14 days' intake of 3×10 g of D-tagatose pr day (adapted). The 16 volunteers are on controlled diet 4 days before the delivery of each faeces samples. Faeces slurries, 20%, were incubated at 37° C. and anaerobic conditions for 48 hours with or without 1% D-tagatose added. Samples for determination of SCFA were taken after 4 hours and after 48 hours of incubation. The amount of SCFA produced by D-tagatose is calculated as the amount produced in the assay with 1% D-tagatose added subtracted by the amount produced in the assay without D-tagatose. Further, the delivered faeces samples were tested for content of various intestinal bacteria counts by spreading on selective media.

[4] = test system: intestinal bacteria; assay: Counts of intestinal bacteria in faeces on selective media (Example 4); type: in vivo; details: human volunteers, 3×10 g D-tagatose pr day for 14 days versus before intake (FIG. 5)
Procedure: as §1

[5] = test system: content from the 8 sections; assay: 12 hour in vitro incubation of content from gut sections, no D-tagatose added (Example 2); type: cell-based, pig
Procedure: (§2) In this study, 3 groups of each 2 pigs were having a standard pig diet+20% sucrose, a standard pig diet+10% sucrose+10% D-tagatose, and a standard pig diet+20% D-tagatose for 33 days. The pigs were killed on the 33. day 6 hours after morning feeding, and the entire gastrointestinal tract was divided into 8 segments.
(§3) The concentrations of the various SCFA were measured in the 8 sections immediately after killing, and further the content from the 8 sections was used for 12 hour in vitro incubations at 37° C. and anaerobic conditions. In this in vitro assay no D-tagatose was added, and the fermentation products originate from unabsorbed D-tagatose and other undigestible food components from the diets.
The data presented here are normalized to production of SCFA pr kg feed.

[6] = test system: colon content; assay: In vitro fermentation of D-tagatose by pig caecum/colon content slurries (Example 1); type: cell-based; details: for Tagatose degradation: in vitro incubation; for Mole % of SCFA after microbial fermentation of D-Tagatose: Acetate / Mole % of SCFA after microbial fermentation of D-Tagatose: Butyrate / Mole % of SCFA after microbial fermentation of D-Tagatose: Capronate / Mole % of SCFA after microbial fermentation of D-Tagatose: Formate / Mole % of SCFA after microbial fermentation of D-Tagatose: Heptanoate / Mole % of SCFA after microbial fermentation of D-Tagatose: Propionate / Mole % of SCFA after microbial fermentation of D-Tagatose: Valerate: 1% tagatose added, 0–4 h
Procedure: In the study, one group of 8 pigs was having a standard diet+15% sucrose (unadapted), and another group of 8 pigs was fed a standard diet+5% sucrose+10% D-tagatose (adapted) for 17 days.
On the 17. day the pigs were killed 3 hours after the morning feeding, and the entire gastrointestinal tract was sectioned. […] 20% slurries were incubated at 37° C. and anaerobic conditions for 4 hours with or without 1% D-tagatose added. The amount of SCFA produced by D-tagatose is calculated as the amount produced in the assay with 1% D-tagatose added subtracted by the amount produced in the assay without D-tagatose.

[7] = In vivo absorption of SCFA in the blood (Example 3); set-up: species or system pig
Procedure: In this pig study the in vivo absorption of SCFA in the blood is measured by taking blood samples simultaneously from 3 catheters in Vena Mesenterica, Ateria mesenterica and Vena Porta over a 12 hour period after the morning feeding. The absorption is measured in the same 5 pigs at 3 different occasions, that is after 7 days adaptation to standard pig diet+20% sucrose (sucrose), the first day of switching to a standard pig diet+20% D-tagatose (unadapted), and after 7 days adaptation to a standard pig diet+20% D-tagatose (adapted). The concentration of SCFA's is determined in samples from the portal vein, that is the blood stream leading from the digestive system to the liver, and in the arterial blood, that is the blood stream before the digestive system. The difference between the two integrated by time is a measure of the intestinal absorption of SCFA's.
The area between the 2 curves is equal to the total absorption of butyrate from the intestine.

[8] = Concentration of butyrate in gastrointestinal sections at slaughtering (Example 2); type: in vivo, pig; details: pigs, 0, 10 or 20% D-tagatose in diet for 33 days; hind gut (FIG. 1)
Procedure: as §2, §3

[9] = 4 hours of incubation, Non-adapted
[10] = 48 hours of incubation, Adapted
[11] = 48 hours of incubation, Non-adapted
[12] = normalized pr kg feed, 0, 10 or 20% D-tagatose in diet (FIG. 3)
[13] = addition of D-tagatose to the diet
[14] = pigs after 7 days of adaptation to 20% D-tagatose diet (FIG. 4)

O=C[C@H](O)[C@@H](O)[C@@H](O)[C@H](O)C(=O)O [galacturonic acid]
proportion of butyrate on fermentation [1]: high proportion of butyrate

O=C(CO)[C@@H](O)[C@@H](O)[C@H](O)CO [D-tagatose]
ingested D-tagatose absorbed in the small intestine [2]: 15–20%
Molar Ratios (Mole %) of SCFA's: Acetic acid ([3]; 4 hours of incubation, Adapted): 42.1 Mole %
Molar Ratios (Mole %) of SCFA's: Butyric acid ([3]; 4 hours of incubation, Adapted): 34.7 Mole %
Molar Ratios (Mole %) of SCFA's: Capronic acid ([3]; 4 hours of incubation, Adapted): 3.5 Mole %
Molar Ratios (Mole %) of SCFA's: Formic acid ([3]; 4 hours of incubation, Adapted): 5.8 Mole %
Molar Ratios (Mole %) of SCFA's: Heptanic acid ([3]; 4 hours of incubation, Adapted): 0.6 Mole %
Molar Ratios (Mole %) of SCFA's: Lactic acid ([3]; 4 hours of incubation, Adapted): 9.0 Mole %
Molar Ratios (Mole %) of SCFA's: Propionic acid ([3]; 4 hours of incubation, Adapted): 4.1 Mole %
Molar Ratios (Mole %) of SCFA's: Valeric acid ([3]; 4 hours of incubation, Adapted): 1.0 Mole %
Total SCFA (production mmol/l) ([3]; 4 hours of incubation, Adapted): 24.3 mmol/L
Molar Ratios (Mole %) of SCFA's: Acetic acid [3, 9]: 62.8 Mole %
Molar Ratios (Mole %) of SCFA's: Butyric acid [3, 9]: 24.5 Mole %
Molar Ratios (Mole %) of SCFA's: Capronic acid [3, 9]: 6.7 Mole %
Molar Ratios (Mole %) of SCFA's: Formic acid [3, 9]: 0.5 Mole %
Molar Ratios (Mole %) of SCFA's: Heptanic acid [3, 9]: 1.1 Mole %
Molar Ratios (Mole %) of SCFA's: Lactic acid [3, 9]: 3.9 Mole %
Molar Ratios (Mole %) of SCFA's: Propionic acid [3, 9]: 0.0 Mole %
Molar Ratios (Mole %) of SCFA's: Valeric acid [3, 9]: 3.0 Mole %
Total SCFA (production mmol/l) [3, 9]: 8.8 mmol/L
Molar Ratios (Mole %) of SCFA's: Acetic acid [3, 10]: 35.3 Mole %
Molar Ratios (Mole %) of SCFA's: Butyric acid [3, 10]: 47.0 Mole %
Molar Ratios (Mole %) of SCFA's: Capronic acid [3, 10]: 13.5 Mole %
Molar Ratios (Mole %) of SCFA's: Formic acid [3, 10]: 0.1 Mole %
Molar Ratios (Mole %) of SCFA's: Heptanic acid [3, 10]: 1.2 Mole %
Molar Ratios (Mole %) of SCFA's: Lactic acid [3, 10]: 3.0 Mole %
Molar Ratios (Mole %) of SCFA's: Propionic acid [3, 10]: 0.5 Mole %
Molar Ratios (Mole %) of SCFA's: Valeric acid [3, 10]: 1.6 Mole %
Total SCFA (production mmol/l) [3, 10]: 44.0 mmol/L
Molar Ratios (Mole %) of SCFA's: Acetic acid [3, 11]: 37.7 Mole %
Molar Ratios (Mole %) of SCFA's: Butyric acid [3, 11]: 38.7 Mole %
Molar Ratios (Mole %) of SCFA's: Capronic acid [3, 11]: 15.2 Mole %
Molar Ratios (Mole %) of SCFA's: Formic acid [3, 11]: 0.0 Mole %
Molar Ratios (Mole %) of SCFA's: Heptanic acid [3, 11]: 1.6 Mole %
Molar Ratios (Mole %) of SCFA's: Lactic acid [3, 11]: 8.6 Mole %
Molar Ratios (Mole %) of SCFA's: Propionic acid [3, 11]: 0.0 Mole %
Molar Ratios (Mole %) of SCFA's: Valeric acid [3, 11]: 1.2 Mole %
Total SCFA (production mmol/l) [3, 11]: 49.0 mmol/L
time of adaptation in the in vitro incubation system ([3]; human faeces slurry, 1% D-tagatose): ≤ 48 h
entero-bacteria in faeces [4]: decreased
number of lactic acid bacteria in faeces [4]: increased in number
number of lactobacilli in faeces [4]: increased in number
12 hour in vitro production of butyrate ([5]; content from gut sections of pigs on 0, 10 or 20% D-tagatose diet (FIG. 2)): acting in a dose response manner
total 12 hour in vitro production of SCFA in the gut: acetate [5, 12]: not influenced
total 12 hour in vitro production of SCFA in the gut: butyrate [5, 12]: in a dose response manner promote the microbiological production of butyrate
Tagatose degradation ([6]; Control pigs (unadapted), colon): 1.1 g/h/kg digesta
Mole % of SCFA after microbial fermentation of D-Tagatose: Acetate ([6]; Control pigs, caecum): 54.8 Mole %
Mole % of SCFA after microbial fermentation of D-Tagatose: Butyrate ([6]; Control pigs, caecum): 18.2 Mole %
Mole % of SCFA after microbial fermentation of D-Tagatose: Capronate ([6]; Control pigs, caecum): 2.0 Mole %
Mole % of SCFA after microbial fermentation of D-Tagatose: Formate ([6]; Control pigs, caecum): 2.5 Mole %
Mole % of SCFA after microbial fermentation of D-Tagatose: Heptanoate ([6]; Control pigs, caecum): 0.2 Mole %
Mole % of SCFA after microbial fermentation of D-Tagatose: Propionate ([6]; Control pigs, caecum): 11.2 Mole %
Mole % of SCFA after microbial fermentation of D-Tagatose: Valerate ([6]; Control pigs, caecum): 11.1 Mole %
Tagatose degradation ([6]; Control pigs, caecum): 2.7 g/h/kg digesta
Mole % of SCFA after microbial fermentation of D-Tagatose: Acetate ([6]; Control pigs, colon): 70.1 Mole %
Mole % of SCFA after microbial fermentation of D-Tagatose: Butyrate ([6]; Control pigs, colon): 16.7 Mole %
Mole % of SCFA after microbial fermentation of D-Tagatose: Capronate ([6]; Control pigs, colon): 4.8 Mole %
Mole % of SCFA after microbial fermentation of D-Tagatose: Formate ([6]; Control pigs, colon): 0.0 Mole %
Mole % of SCFA after microbial fermentation of D-Tagatose: Heptanoate ([6]; Control pigs, colon): 0.6 Mole %
Mole % of SCFA after microbial fermentation of D-Tagatose: Propionate ([6]; Control pigs, colon): 0.0 Mole %
Mole % of SCFA after microbial fermentation of D-Tagatose: Valerate ([6]; Control pigs, colon): 7.8 Mole %
Tagatose degradation ([6]; D-tagatose pigs (adapted), colon): 15.3 g/h/kg digesta
Mole % of SCFA after microbial fermentation of D-Tagatose: Acetate ([6]; D-tagatose pigs, caecum): 21.5 Mole %
Mole % of SCFA after microbial fermentation of D-Tagatose: Butyrate ([6]; D-tagatose pigs, caecum): 21.8 Mole %
Mole % of SCFA after microbial fermentation of D-Tagatose: Capronate ([6]; D-tagatose pigs, caecum): 1.9 Mole %
Mole % of SCFA after microbial fermentation of D-Tagatose: Formate ([6]; D-tagatose pigs, caecum): 14.4 Mole %
Mole % of SCFA after microbial fermentation of D-Tagatose: Heptanoate ([6]; D-tagatose pigs, caecum): 0.0 Mole %
Mole % of SCFA after microbial fermentation of D-Tagatose: Propionate ([6]; D-tagatose pigs, caecum): 17.0 Mole %
Mole % of SCFA after microbial fermentation of D-Tagatose: Valerate ([6]; D-tagatose pigs, caecum): 23.4 Mole %
Tagatose degradation ([6]; D-tagatose pigs, caecum): 3.7 g/h/kg digesta
Mole % of SCFA after microbial fermentation of D-Tagatose: Acetate ([6]; D-tagatose pigs, colon): 23.3 Mole %
Mole % of SCFA after microbial fermentation of D-Tagatose: Butyrate ([6]; D-tagatose pigs, colon): 46.3 Mole %
Mole % of SCFA after microbial fermentation of D-Tagatose: Capronate ([6]; D-tagatose pigs, colon): 6.8 Mole %
Mole % of SCFA after microbial fermentation of D-Tagatose: Formate ([6]; D-tagatose pigs, colon): 3.7 Mole %
Mole % of SCFA after microbial fermentation of D-Tagatose: Heptanoate ([6]; D-tagatose pigs, colon): 0.8 Mole %
Mole % of SCFA after microbial fermentation of D-Tagatose: Propionate ([6]; D-tagatose pigs, colon): 4.0 Mole %
Mole % of SCFA after microbial fermentation of D-Tagatose: Valerate ([6]; D-tagatose pigs, colon): 15.1 Mole %
butyrate in SCFA profile ([6]; colon content from unadapted pigs): less than 20%
total absorption of butyrate (area between portal and arterial curves) ([7]; adapted versus unadapted to 20% D-tagatose diet): does not differ in the adapted and unadapted state
absorption of acetate [7, 13]: not increased
absorption of propionate [7, 13]: not increased
concentration of butyrate in arterial blood [7, 14]: increasing
concentration of butyrate in the portal blood [7, 14]: very steep increase a few hours after feeding
time of adaptation to butyrate production ([7]; pigs in vivo, 20% D-tagatose diet): ≤ 12 h
butyrate in the portal vein ([7]; pigs unadapted, first day of 20% D-tagatose diet, 12 hours after feeding (FIG. 4)): gradually increasing over the 12 hours of measuring
concentration of butyrate in the various gastrointestinal sections at the time of slaughtering [8]: increasing in a dose response manner

OC[C@@H](O)[C@@H](O)[C@H](O)[C@@H](O)CO [sorbitol]
proportion of butyrate on fermentation [1]: high proportion of butyrate

O=C(O)[C@H]1OC(O)[C@H](O)[C@@H](O)[C@@H]1O (some centres unmarked) [glucoronic acid]
proportion of butyrate on fermentation [1]: high proportion of butyrate

OC[C@@H](O)[C@@H](O[C@H]1O[C@H](CO)[C@@H](O)[C@H](O)[C@H]1O)[C@H](O)[C@@H](O)CO [maltitol]
butyrate on in vitro incubation ([1]; Rapaille and Bornet 1997): 10%
